Assay results: patent US8519121B2, “Dextran for treating lung cancer” (Guangzhou Konzern Pharmaceutical Co., Ltd., priority 2008, dated 2013)

Key:
Assay type in all cases: cell-based
[1] = test system: human small cell lung cancer (NCl-H446); assay: Anchorage-dependent cell growth capacity, plate cloning method, NCl-H446; conditions: NCI-H446, plate cloning method, 7 days, 0.1 μg/ml; for Number of Colonies: n = 9, X ± SD
Description: (§1) Human lung cancer cell (A549), purchased from cell center of Xiangya School of Medicine, Central South University. Human small cell lung cancer (NCl-H446) and Chinese Hamster Lung Epithelial cells (CHL), purchased from Shanghai Institute of Biochemistry and Cell Biology, Chinese Academy of Sciences. Culture condition: RPMI 1640 medium with 10% bovine serum, 37° C., 5% CO2. Take the logarithmic phase cell for the following experiment.
(§2) Preparing suspension of human lung cancer cell (A549) and human small cell lung cancer (NCl-H446), adjust to 0.3×10^3 cells/ml. In each hole, cell suspension […], and sample 0.2 ml, and control solution 0.2 ml. The final concentration of KY-1-1 is 0.1 μg/ml, 0.3 μg/ml, 1.0 μg/ml, 3.0 μg/ml, 10.0 μg/ml and 30.0 μg/ml, and the final concentration of DDP and TAX are both 0.1 μg/ml, add the same volume medium into the control group. Three holes in each group, seed in 24-microplate, incubate in CO2 for 7 days. Add 95% methanol 0.5 ml into each hole, fixed for 15 minutes, and Giemsa staining for 10-30 minutes. The number of cells in a colony is more than 50, or the diameter of the colony is more than 75 μm. Count the number of colonies in each hole, calculate the mean and record it. Calculate the colony inhibition ratio (CIR) with the following equation: CIR(%)=(1−mean of number of colony of dextran group/mean of number of colony of control group)×100%.
(§3) The plate efficiency (PE) is calculated with the following equation: PE=mean of number of colony/number of seeded cells×100%,
(§4) wherein IC50 is calculated by Calcus Zn procedure.
(§5) Repeat the above experiment twice.
(§6) Experiment data is expressed by X±SD, and use the software SPSS 15.0 Evaluation for windows to carry out One Way ANOVA analysis, and the analysis of variance uses the LSD method and SNK method. The result is compared by Student's test, there is statistic marked difference under the condition of […].

[2] = test system: human small cell lung cancer (NCl-H446); assay: MTT cell proliferation, human small cell lung cancer (NCl-H446); conditions: NCI-H446 cells, 48 hours, 0.1 μg/ml; for A570: n = 9, X ± SD
Description: as §1
(§7) Weight 3.8 g KY-1-1 into 10 ml bottle, dissolve with DMSO, and then dilute with normal saline (N.S.) to 300.0 μg/ml, 100.0 μg/ml, 30.0 μg/ml, 10.0 μg/ml, 3.0 μg/ml, 1.0 μg/ml, put into 2 ml EP tube separately, preserve in 4° C.
(§8) Injection Cisplatin (DDP), purchased from Qilu Pharmaceutical Co., Ltd., 10 mg/bottle, batch number 6030052 DB, dissolve with normal saline, dilute to 100.0 μg/ml, 10.0 μg/ml and 1.0 μg/ml.
(§9) Taxol (TAX), purchased from Beijing Sihuan Pharmaceutical Technology Stock Company, 30 mg/5 ml/bottle, batch number 060830, dissolve with normal saline, dilute to 100.0 μg/ml, 10.0 μg/ml and 1.0 μg/ml. • (2) Method
(§10) Preparing suspension of human lung cancer cell (A549), human small cell lung cancer (NCl-H446) and Chinese Hamster Lung Epithelial cells (CHL), adjust to 0.5×10^4 cells/ml, seed in 96-microplate, 180 μl/hole. After cell adhesion (about 12 hours), add sample and control solution 20 μl separately into each hole, adjust the final concentration of KY-1-1 to 0.1 μg/ml, 0.3 μg/ml, 1.0 μg/ml, 3.0 μg/ml, 10.0 μg/ml and 30.0 μg/ml, and the final concentration of DDP and TAX are both 0.1 μg/ml, incubate for 48 hours, and then add MTT (5 mg/ml, MTT:PBS) 20 μl to each hole, incubate for 6 hours, remove the liquid in each hole, and then add DMSO 100 μl to each hole in order to dissolve the purple blue precipitate, then detect the absorbency (A) in 570 nm by an enzyme-labeled instrument EXL-800. Calculate the inhibition ratio (IR) with the following equation: IR(%)=(1−mean of A of dextran group/mean of A of control group)×100%.
(§11) The selective index (SI) of cytotoxicity of the dextran is calculated with the following equation: SI═IC50(CHL cells)/IC50(A549 cells or NCl-H446 cells),
as §4, §5, §6

[3] = test system: human lung cancer cell (A549); assay: Anchorage-dependent cell growth capacity, plate cloning method, A549; conditions: 7 days, 0.1 μg/ml; for Number of Colonies: n = 9, X ± SD
Description: as §1, §2, §3, §4, §5, §6

[4] = test system: human small cell lung cancer (NCl-H446); assay: Anchorage-independent cell growth (cell colony forming capacity in agar), NCl-H446; conditions: NCI-H446, colony forming in agar, 7 days, 0.1 μg/ml; for Number of Colonies: n = 9, X ± SD
Description: as §1
(§12) Take 24-microplate, add 0.6% agar medium 0.5 ml in each hole. Preparing suspension of human lung cancer cell (A549) and human small cell lung cancer (NCl-H446), adjust to 1.6×10^3 cells/ml. In each hole, cell suspension 1.6 ml, and sample 0.2 ml, and control solution 0.2 ml. The final concentration of KY-1-1 is 0.1 μg/ml, 0.3 μg/ml, 1.0 μg/ml, 3.0 μg/ml, 10.0 μg/ml and 30.0 μg/ml, and the final concentration of DDP and TAX are both 0.1 μg/ml. DDP 0.2 ml, and TAX 0.2 ml. Add the same volume medium into the control group. Three holes in each group, after mixing with 0.3% agar 0.2 ml, seed in 24-microplate 0.5 ml/hole, incubate in CO2 for 7 days. The number of cells in a colony is more than 50, or the diameter of the colony is more than 75 μm. Count the number of colonies in each hole, calculate the mean and record it. Calculate the colony inhibition ratio (CIR) with the following equation: CIR(%)=(1−mean of number of colony of dextran group/mean of number of colony of control group)×100%.
as §3, §4, §5, §6

[5] = test system: Chinese Hamster Lung Epithelial cells (CHL); assay: MTT cell proliferation, Chinese Hamster Lung Epithelial cells (CHL); conditions: 48 hours, 0.1 μg/ml; for A570: n = 9, X ± SD
Description: as §1, §7, §8, §9, §10, §11, §4, §5, §6

[6] = test system: human lung cancer cell (A549); assay: Anchorage-independent cell growth (cell colony forming capacity in agar), A549; conditions: 7 days, 0.1 μg/ml; for Number of Colonies: n = 9, X ± SD
Description: as §1, §12, §3, §4, §5, §6

[7] = test system: human lung cancer cell (A549); assay: MTT cell proliferation, human lung cancer (A549); conditions: A549 cells, 48 hours, 0.1 μg/ml; for A570: n = 9, X ± SD
Description: as §1, §7, §8, §9, §10, §11, §4, §5, §6

SMILES | IR (%) [1] [%] | Number of Colonies [1] | IR (%) [2] [%] | A570 [2] | IR (%) [3] [%] | Number of Colonies [3] | IR (%) [4] [%] | Number of Colonies [4] | IR (%) [5] [%] | A570 [5] | IR (%) [6] [%] | Number of Colonies [6] | IR (%) [7] [%] | A570 [7]
N.N.[Cl][Pt][Cl] [DDP, Cisplatin] | 78.44 | 23.33 ± 4.18 | 77.89 | 0.36 ± 0.03 | 75.82 | 23.89 ± 4.43 | 75.98 | 17.00 ± 2.74 | 76.35 | 1.41 ± 0.30 | 77.05 | 14.00 ± 2.00 | 76.35 | 0.37 ± 0.03
CC(=O)O[C@H]1C(=O)[C@@]2(C)[C@H]([C@H](OC(=O)c3ccccc3)[C@]3(O)C[C@H](OC(=O)[C@H](O)[C@@H](NC(=O)c4ccccc4)c4ccccc4)C(C)=C1C3(C)C)[C@]1(OC(C)=O)CO[C@@H]1C[C@@H]2O [TAX, Taxol] | 82.34 | 19.11 ± 2.57 | 83.54 | 0.27 ± 0.01 | 82.00 | 17.78 ± 2.05 | 84.46 | 11.00 ± 1.58 | 83.13 | 1.25 ± 0.14 | 83.61 | 10.00 ± 1.87 | 83.13 | 0.27 ± 0.03
